In publication PMC9967645, “OAT3 Participates in Drug–Drug Interaction between Bentysrepinine and Entecavir through Interactions with M8—A Metabolite of Bentysrepinine—In Rats and Humans In Vitro” (Molecules, 2023):

How the values were obtained:
hOAT1 = target: T1, hOAT1 (Homo sapiens, UniProt Q4U2R8); experiment: In vitro uptake assay in hOAT1-HEK293 cells; type: in vitro ADME; conditions: Y101 2.0 µM, M8 10 µM; for inhibition of the uptake of ETV in hOAT1-HEK293 cells: ETV 10 µM; for substrate of hOAT1 (uptake in hOAT1-HEK293 vs mock-HEK293 cells): PAH 10 µM
T1 construct: expressed in transfected cells; host or cells: HEK293
T1 sequence (Q4U2R8 1-563): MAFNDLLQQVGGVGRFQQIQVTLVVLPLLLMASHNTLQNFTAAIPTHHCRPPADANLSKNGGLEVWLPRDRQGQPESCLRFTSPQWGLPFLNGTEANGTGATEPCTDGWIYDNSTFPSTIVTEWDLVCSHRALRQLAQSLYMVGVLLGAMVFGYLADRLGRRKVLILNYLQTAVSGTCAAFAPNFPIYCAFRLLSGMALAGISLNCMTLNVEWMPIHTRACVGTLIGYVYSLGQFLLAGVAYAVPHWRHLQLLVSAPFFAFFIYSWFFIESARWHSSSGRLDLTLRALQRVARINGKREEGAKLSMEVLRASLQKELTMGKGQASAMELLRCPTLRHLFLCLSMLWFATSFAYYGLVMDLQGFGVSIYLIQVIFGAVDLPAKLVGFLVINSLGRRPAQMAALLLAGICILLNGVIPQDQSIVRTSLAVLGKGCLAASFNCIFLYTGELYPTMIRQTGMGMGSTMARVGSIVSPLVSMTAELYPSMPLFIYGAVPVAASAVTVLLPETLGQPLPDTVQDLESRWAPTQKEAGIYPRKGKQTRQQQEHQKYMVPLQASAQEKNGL
Experimental: The hOAT1-HEK293, hOAT3-HEK293 and mock cells were cultured in Dulbecco modified Eagle medium (DMEM) containing 10% fetal bovine serum (FBS) and 1% penicillin/streptomycin in an atmosphere of 5% CO2 air at 37 °C. The HEK293 cells were plated on 24-well plates at a density of 5 × 10^5 cells/well. […] Uptake assay was initiated by adding 1 mL of the transporter buffer containing Y101, M8, ETV or probe substrate. Following incubation with gentle shaking, the uptake was terminated at designated time by removing the transporter buffer and washing cells three times with 1 mL of ice-cold HBSS. Next, substrates of Y101, M8, ETV, PAH and ES in cell monolayer were released by lysing the cells with 0.3 mL of 0.1% Triton X-100 for 2 h and determined by liquid chromatography–tandem mass spectrometry (LC–MS/MS). In the time-course uptake assay, Y101 (2.0 µM) and M8 (10 µM) in the presence or absence of PRO (100 µM) were measured in hOAT1-HEK293, hOAT3-HEK293 and mock cells. The concentration-dependent uptake of M8 was determined in hOAT3-HEK293 cells, and incubation time (5 min) was optimized. The uptake of M8 (10 µM) with or without ETV was examined in hOAT3-HEK293 cells. The uptake of ETV (10 µM) with or without Y101 or M8 was also measured in hOAT1-HEK293 and hOAT3-HEK293 cells, respectively. Furthermore, PAH and ES at concentrations of 10 µM were used as positive control in hOAT1-HEK293 and hOAT3-HEK293 cells, respectively. Protein concentrations were measured by the bicinchoninic acid procedure (Solarbio, Beijing, China) using bovine serum albumin as the standard.
Biological samples were prepared as previously described. Aliquots (50 µL) of urine, plasma, kidney homogenates, or cell lysates were individually mixed with 150 µL methanol and 50 µL working solution of internal standard (acetaminophen or bestatin), followed by vortexing for 1 min and centrifuging at 13,800 g for 10 min. […] The resulting supernatant (1 µL) was subjected to LC-MS/MS for the assessment of Y101, M8, M9 and ETV, respectively. […] The concentrations of ETV, Y101, M8 and M9 were determined by an AB QTRAP 5500 LC–MS/MS System (Foster City, CA, USA) as previously described. […] Analyst1.5.2 software was used for data processing and analysis.

[1] = design: method as in PMID 32277364, PMID 29258048; conditions: healthy Chinese volunteers, phase I; cited from earlier work
[2] = system: lamivudine and entecavir-resistant HBV; design: method as in PMID 32277364, PMID 21872478, PMID 19307124, doi:10.1016/S1674-6384(15)60018-1; conditions: A64 cells; cited from earlier work
HBV = system: HBV; design: method as in PMID 32277364, PMID 21872478, PMID 19307124, doi:10.1016/S1674-6384(15)60018-1; conditions: dose-dependent; cited from earlier work
[3] = concanavalin A and alpha-naphthylisothiocyanate-induced; cited from earlier work
[4] = human, in vivo; cited from earlier work
hOAT3 = target: T2, hOAT3 (Homo sapiens, UniProt Q8TCC7); design: expressed in transfected cells; host or cells: HEK293; method as in PMID 23313623; conditions: read-out: Km (affinity with hOAT3); cited from earlier work
T2 sequence (Q8TCC7 1-542): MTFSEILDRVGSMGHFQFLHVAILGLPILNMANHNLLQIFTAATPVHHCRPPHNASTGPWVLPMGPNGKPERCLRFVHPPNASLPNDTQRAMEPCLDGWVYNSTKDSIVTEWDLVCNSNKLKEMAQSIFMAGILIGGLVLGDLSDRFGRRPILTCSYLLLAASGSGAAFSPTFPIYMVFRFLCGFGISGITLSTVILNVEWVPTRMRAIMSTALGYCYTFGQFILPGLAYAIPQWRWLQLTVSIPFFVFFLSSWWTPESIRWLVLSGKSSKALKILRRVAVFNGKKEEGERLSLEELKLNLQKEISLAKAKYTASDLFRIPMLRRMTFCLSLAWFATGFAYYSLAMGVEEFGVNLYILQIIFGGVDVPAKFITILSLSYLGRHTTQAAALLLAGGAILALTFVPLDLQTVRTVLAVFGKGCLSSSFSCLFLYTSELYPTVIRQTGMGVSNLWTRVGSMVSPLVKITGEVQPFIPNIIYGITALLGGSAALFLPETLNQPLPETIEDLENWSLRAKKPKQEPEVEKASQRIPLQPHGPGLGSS

## CN(C)CCOc1ccc(C[C@H](NC(=O)c2ccccc2)C(=O)N[C@H](CO)Cc2ccccc2)cc1.Cl [Y101, N-[N-benzoyl-O-(2-dimethylaminoethyl)-l-tyrosyl]-l-phenylalaninol hydrochloride]
hOAT1
  inhibition of the uptake of ETV in hOAT1-HEK293 cells: not inhibited
  substrate of hOAT1 (uptake in hOAT1-HEK293 vs mock-HEK293 cells): not a substrate of hOAT1 or hOAT3
[1]
  safety and tolerability: acceptable safety and tolerability
[2]
  activity against lamivudine and entecavir-resistant HBV replication: significant activity
HBV
  inhibitory effects on HBsAg and HBV-DNA replication: potent inhibitory effects
[3]
  protective effects on induced liver injury: protective effects

## C=C1[C@H](CO)[C@@H](O)C[C@@H]1n1cnc2c(=O)[nH]c(N)nc21 [ETV, entecavir]
[4]
  plasma concentrations: lower than 50 nM
hOAT3
  Km: 23 µM

## CN(C)CCOc1ccc(CC(NC(=O)c2ccccc2)C(=O)O)cc1 (stereo not shown) [M8]
hOAT1
  inhibition of the uptake of ETV in hOAT1-HEK293 cells: not inhibited
  substrate of hOAT1 (uptake in hOAT1-HEK293 vs mock-HEK293 cells): not a substrate of hOAT1
